Patent publication US20230270723A1, “GLUCOKINASE ACTIVATOR FOR TREATING DIABETES WITH HEPATIC IMPAIRMENT” (HUA Medicine (Shanghai) Ltd., priority 2020, published 2023)
Where two headings read alike, the source gives them in different places.

Experiments:
[1] = Plasma protein binding (PPB) analysis, free drug percentage (fu); type: in vitro ADME; conditions: human, oral, 25 mg
Description: (§1) Eligible subjects were admitted to the Phase 1 study ward on either Day −2 or Day −1 to complete the baseline examination, and re-confirmed the inclusion/exclusion criteria by the investigator and fed a standardized meal after admission. Subjects were fasted at least 10 hours overnight while water was not deprived after the standardized dinner on Day −1, and received a single dose of dorzagliatin 25 mg (25 mg/tablet, 1 tablet) with 240 mL of warm water on the morning of Day 1. Subjects should start the standardized breakfast about 1 hour after administration and complete the meal within 30 minutes. Blood samples for PK and plasma protein binding (PPB) analyses were collected at specified time points within 1 hour pre-dose through 72 hours post-dose. The corresponding safety indicators at preset time points were detected for safety assessment.
(§2) Pharmacokinetic Evaluation • PK blood sampling time: Within 1 hour pre-dose and 0.25, 0.5, 1, 1.5, 2, 2.5, 3, 4, 6, 8, 12, 24, 36, 48 and 72 hours post-dose of dorzagliatin on Day 1. • PPB blood sampling time: Within 1 hour pre-dose and 1 hour post-dose of dorzagliatin. • Bioanalytical method: dorzagliatin in plasma was analyzed using a validated method of liquid chromatography-tandem mass spectrometry (LC-MS/MS). • PK parameters. Primary PK endpoint: Cmax, AUClast, AUCinf; Secondary PK endpoint (if applicable): Cmax,u, AUClast,u, AUCinf,u, Tmax, T1/2, CL/F, Vz/F, fu.

[2] = Safety evaluation (adverse events) after single oral dose of dorzagliatin 25 mg; type: in vivo, human
Description: Safety Evaluation • Physical examination: Evaluated at screening, baseline, Day 2, Day 3, discharge examination on Day 4. • Vital signs: Evaluated at screening, baseline, 24 and 48 hours post-dose, discharge examination on Day 4. • 12-lead ECG: Evaluated at screening, baseline, 24 hours and 48 hours post-dose, discharge examination on Day 4. Test once at each time point. • Hematology, blood biochemistry and urinalysis: Evaluated at screening, baseline, 24 hours, 48 hours and 72 hours post-dose. • Adverse events (AEs): All the subjects are observed for any AEs occurring from the signing of the ICF to the end of study. The clinical manifestations, severity, occurrence time, end time (if applicable), treatment measure, outcome and other information of each AE are recorded, and the correlation between an AE and the study drugs is judged.

[3] = Phase I single oral dose pharmacokinetic study of dorzagliatin in subjects with mild or moderate hepatic impairment and healthy subjects (plasma, LC-MS/MS, non-compartmental); type: in vivo, human; conditions: for AUC(0-inf) / AUC(0-t) / Cmax / half-life / Vd/F / Tmax: both sexes, human, plasma, po, 25 mg; for Vd/F: read-out: Vz/F; for Tmax: median
Description: This phase I study is to access the pharmacokinetics and safety of a single dose of dorzagliatin in subjects with mild or moderate hepatic impairment, and heathy subjects. […] The eligible subjects of Groups A and B are matched closely with the healthy subjects of Group C as to their sexes, ages (±5 yrs), and BMIs (±15%).
on Day −2 or −1, eligible subjects are admitted to a clinical research center (CRC). […], the subjects have no additional food after a standard dinner for at least 10 h. In the morning of Day 1, the subjects each receive dorzagliatin (25 mg) orally with empty stomach. One hour later, the subjects have a standardized breakfast. Blood samples are collected at the following time points: within 60 min pre-dose; and at 0.25, 0.5, 1, 1.5, 2, 2.5, 3, 4, 6, 8, 12, 24, 36, 48, and 72 h post-dose. The samples are analyzed using LC-MS/MS. The plasma concentration-time data for dorzagliatin are analyzed using a non-compartmental model to obtain PK parameters, including Cmax, AUClast, and AUCinf. An ANOVA analysis is performed on the data between Group C and Groups A and B.
Study design: This study was designed to evaluate the PK and safety of a single oral dose of dorzagliatin 25 mg in subjects with hepatic impairment compared with matched healthy subjects using an open label, single-center, parallel study design. The study population (as shown in Table 1) consisted of subjects with mild (group A) and moderate (group B) hepatic impairment and healthy subjects (group C) matched for sex, mean age, and mean BMI. The number of subjects who completed the study in each group was not less than 8, both male and female, and no less than 3 subjects of a single sex in each group.
as §1, §2

[4] = moderate hepatic impairment group
[5] = single oral dose 25 mg, healthy group, arithmetic mean
[6] = single oral dose 25 mg, mild hepatic impairment group, arithmetic mean
[7] = single oral dose 25 mg, moderate hepatic impairment group, arithmetic mean

## CC(C)C[C@@H](C(=O)Nc1ccn(C[C@@H](O)CO)n1)N1CC(Oc2ccccc2Cl)=CC1=O [dorzagliatin, (S)-2-(4-(2-chlorophenoxy)-2-oxo-2,5-dihydro-1H-pyrrol-1-yl)-N-(1-((R)-2,3-dihydroxypropyl)-1H-pyrazol-3-yl)-4-methylpentanamide]
[1]; free drug percentage in plasma, healthy group, arithmetic mean, read-out: fu
  fraction unbound: 0.0646
[1]; free drug percentage in plasma, mild hepatic impairment group (N=7), arithmetic mean, read-out: fu
  fraction unbound: 0.0719
[1]; free drug percentage in plasma, moderate hepatic impairment group, arithmetic mean, read-out: fu
  fraction unbound: 0.0832
[1]; healthy group, read-out: free drug percentage (fu), geometric mean
  fraction unbound: 0.0639
[1]; mild hepatic impairment group, read-out: free drug percentage (fu), geometric mean
  fraction unbound: 0.0712
[1]; moderate hepatic impairment group, read-out: free drug percentage (fu), geometric mean
  fraction unbound: 0.0829
[2]; all subjects
  number of AEs: 20
  number of TEAEs: 18
  number of TEAEs considered possibly related to the study drug: 10
  subjects with TEAEs considered possibly related to the study drug: 25.0%
[2]; all subjects, during the study
  SAEs, death, or significant TEAEs: no SAEs, death, or significant TEAEs
[2]; all subjects, mild in most cases
  subjects who experienced TEAEs: 33.3%
[2]; all subjects, single oral dose 25 mg
  subjects who experienced AEs: 33.3%
[2]; healthy group
  subjects who experienced AEs: No subjects
[2]; mild hepatic impairment group
  number of AEs: 13
  number of TEAEs considered possibly related to the study drug: 8
  subjects who experienced AEs: 62.5%
  subjects with TEAEs considered possibly related to the study drug: 50.0%
[2]; [4]
  number of AEs: 7
  number of TEAEs considered possibly related to the study drug: 2
  subjects who experienced AEs: 37.5%
  subjects with TEAEs considered possibly related to the study drug: 25.0%
[2]; single oral dose, subjects with mild and moderate hepatic impairment
  safety and tolerability: safe and well tolerated
[3]; free drug, single oral dose 25 mg, healthy group, arithmetic mean, read-out: AUCinf,u
  AUC(0-inf): 123 ng·h/mL
[3]; free drug, single oral dose 25 mg, healthy group, arithmetic mean, read-out: AUClast,u
  AUC(0-t): 122 ng·h/mL
[3]; free drug, single oral dose 25 mg, healthy group, read-out: AUCinf,u, geometric least squares mean
  AUC(0-inf): 119 ng·h/mL
[3]; free drug, single oral dose 25 mg, healthy group, read-out: AUClast,u, geometric least squares mean
  AUC(0-t): 118 ng·h/mL
[3]; free drug, single oral dose 25 mg, mild hepatic impairment group (N=7), arithmetic mean, read-out: AUCinf,u
  AUC(0-inf): 170 ng·h/mL
[3]; free drug, single oral dose 25 mg, mild hepatic impairment group (N=7), arithmetic mean, read-out: AUClast,u
  AUC(0-t): 169 ng·h/mL
[3]; free drug, single oral dose 25 mg, moderate hepatic impairment group, arithmetic mean, read-out: AUCinf,u
  AUC(0-inf): 287 ng·h/mL
[3]; free drug, single oral dose 25 mg, moderate hepatic impairment group, arithmetic mean, read-out: AUClast,u
  AUC(0-t): 284 ng·h/mL
[3]; free drug, single oral dose 25 mg, moderate hepatic impairment group, read-out: AUCinf,u, geometric least squares mean
  AUC(0-inf): 282 ng·h/mL
[3]; free drug, single oral dose 25 mg, moderate hepatic impairment group, read-out: AUClast,u, geometric least squares mean
  AUC(0-t): 280 ng·h/mL
[3]; single oral dose 25 mg, fasted, healthy group, arithmetic mean, read-out: Cmax
  Cmax: 325 ng/mL
[3]; single oral dose 25 mg, fasted, mild hepatic impairment group (Child-Pugh 5-6), arithmetic mean, read-out: Cmax
  Cmax: 382 ng/mL
[3]; single oral dose 25 mg, fasted, moderate hepatic impairment group (Child-Pugh 7-9), arithmetic mean, read-out: Cmax
  Cmax: 370 ng/mL
[3]; [5]
  half-life: 6.22 h
  Vd/F: 122 L
  CL/F: 13.7 L/h
[3]; single oral dose 25 mg, healthy group, arithmetic mean, read-out: AUCinf
  AUC(0-inf): 1910 ng·h/mL
[3]; single oral dose 25 mg, healthy group, arithmetic mean, read-out: AUClast
  AUC(0-t): 1890 ng·h/mL
[3]; single oral dose 25 mg, healthy group
  Tmax: 1.75 h
[3]; single oral dose 25 mg, healthy group, read-out: AUCinf, geometric least squares mean
  AUC(0-inf): 1870 ng·h/mL
[3]; single oral dose 25 mg, healthy group, read-out: AUClast, geometric least squares mean
  AUC(0-t): 1840 ng·h/mL
[3]; single oral dose 25 mg, healthy group, read-out: Cmax, geometric least squares mean
  Cmax: 307 ng/mL
[3]; [6]
  half-life: 6.25 h
  Vd/F: 106 L
  CL/F: 11.8 L/h
[3]; single oral dose 25 mg, mild hepatic impairment group, arithmetic mean, read-out: AUCinf
  AUC(0-inf): 2260 ng·h/mL
[3]; single oral dose 25 mg, mild hepatic impairment group, arithmetic mean, read-out: AUClast
  AUC(0-t): 2240 ng·h/mL
[3]; single oral dose 25 mg, mild hepatic impairment group
  Tmax: 1.5 h
[3]; single oral dose 25 mg, mild hepatic impairment group, read-out: AUCinf, geometric least squares mean
  AUC(0-inf): 2190 ng·h/mL
[3]; single oral dose 25 mg, mild hepatic impairment group, read-out: AUClast, geometric least squares mean
  AUC(0-t): 2170 ng·h/mL
[3]; single oral dose 25 mg, mild hepatic impairment group, read-out: Cmax, geometric least squares mean
  Cmax: 370 ng/mL
[3]; [7]
  half-life: 8.04 h
  Vd/F: 85.2 L
  CL/F: 7.43 L/h
[3]; single oral dose 25 mg, moderate hepatic impairment group, arithmetic mean, read-out: AUCinf
  AUC(0-inf): 3450 ng·h/mL
[3]; single oral dose 25 mg, moderate hepatic impairment group, arithmetic mean, read-out: AUClast
  AUC(0-t): 3410 ng·h/mL
[3]; single oral dose 25 mg, moderate hepatic impairment group, mean, read-out: AUClast
  AUC(0-t): 3410 ng·h/mL
[3]; single oral dose 25 mg, moderate hepatic impairment group
  Tmax: 1.5 h
[3]; single oral dose 25 mg, moderate hepatic impairment group, read-out: AUCinf, geometric least squares mean
  AUC(0-inf): 3410 ng·h/mL
[3]; single oral dose 25 mg, moderate hepatic impairment group, read-out: AUClast, geometric least squares mean
  AUC(0-t): 3370 ng·h/mL
[3]; single oral dose 25 mg, moderate hepatic impairment group, read-out: Cmax, geometric least squares mean
  Cmax: 362 ng/mL
[3]; free drug, single oral dose 25 mg, healthy group
  Cmax,u, geometric least squares mean: 19.7 ng/mL
[3]; free drug, single oral dose 25 mg, healthy group, arithmetic mean
  Cmax,u: 21.0 ng/mL
[3]; free drug, single oral dose 25 mg, mild hepatic impairment group (N=7), arithmetic mean
  Cmax,u: 28.8 ng/mL
[3]; free drug, single oral dose 25 mg, moderate hepatic impairment group
  Cmax,u, geometric least squares mean: 30.0 ng/mL
[3]; free drug, single oral dose 25 mg, moderate hepatic impairment group, arithmetic mean
  Cmax,u: 30.7 ng/mL
[3]; mild hepatic impairment group
  increase of geometric mean of AUCinf compared with healthy subjects: ~17%
  increase of geometric mean of AUClast compared with healthy subjects: approximately 18%
  increase of geometric mean of Cmax compared with healthy subjects: approximately 20%
[3]; mild hepatic impairment vs healthy subjects
  effect of mild hepatic impairment on clearance and exposure level: no significant effect
[3]; [4]
  increase of geometric mean of AUCinf compared with healthy subjects: ~83%
  increase of geometric mean of AUClast compared with healthy subjects: ~83%
  increase of geometric mean of Cmax compared with healthy subjects: approximately 18%
  increase of geometric mean of free AUCinf compared with the healthy group: ~137%
  increase of geometric mean of free AUClast compared with the healthy group: ~137%
[3]; moderate hepatic impairment vs healthy subjects
  clearance and exposure level in moderate hepatic impairment: the drug clearance was decreased and the exposure level was increased
[3]; moderate hepatic impairment, conclusion, AUC not further specified
  increase of AUC of free drug compared with healthy subjects: ~137%
[3]; single oral dose 25 mg
  absorption after oral administration: rapidly absorbed
